Assay results reported in ChEMBL document CHEMBL5154808, “Novel β-Hairpin Antimicrobial Peptides Containing the β-Turn Sequence of -RRRF- Having High Cell Selectivity and Low Incidence of Drug Resistance” (J Med Chem, 2022).
Activity calls are given as the source filed them. The rule behind the calls is not given here.

What was measured:
Staphylococcus aureus [1] = assay: Antimicrobial activity against Staphylococcus aureus ATCC 25923 assessed as reduction in bacterial growth incubated for 18 hrs in presence of 10% serum by CLSI protocol based broth microdilution method (reference value: 8 uM); assay type: functional
Escherichia coli [2] = assay: Synergistic antibacterial activity against Escherichia coli ATCC 25922 assessed as fractional inhibitory concentration index incubated for 18 hrs in presence of polymyxin B by checker board assay; assay type: functional
Staphylococcus aureus [3] = assay: Antimicrobial activity against Staphylococcus aureus ATCC 25923 assessed as assessed as fold change in MIC incubated for 18 hrs in presence of 4 uM FeCl3 by CLSI protocol based broth microdilution method relative to control; assay type: functional
Escherichia coli [4] = assay: Antimicrobial activity against rifampicin-resistant Escherichia coli ATCC 25922; assay type: functional
Staphylococcus aureus [5] = assay: Antimicrobial activity against Staphylococcus aureus ATCC 25923 assessed as reduction in bacterial growth incubated for 18 hrs in presence of 1 mM MgCl2 by CLSI protocol based broth microdilution method (reference value: 8 uM); assay type: functional
Escherichia coli [6] = assay: Antimicrobial activity against Escherichia coli ATCC 25922 assessed as fold change in MIC incubated for 18 hrs in presence of 4.5 mM KCl by CLSI protocol based broth microdilution method relative to control; assay type: functional
Enterococcus faecalis = assay: Antimicrobial activity against Enterococcus faecalis ATCC 29212 assessed as reduction of bacterial growth incubated for 18 hrs by CLSI protocol based broth microdilution method; assay type: functional
Staphylococcus aureus [7] = assay: Antimicrobial activity against Staphylococcus aureus ATCC 25923 assessed as fold change in MIC incubated for 18 hrs in presence of 1 mM MgCl2 by CLSI protocol based broth microdilution method relative to control; assay type: functional
Escherichia coli [8] = assay: Antimicrobial activity against Escherichia coli ATCC 25922 assessed as fold change in MIC incubated for 18 hrs in presence of 4 uM FeCl3 by CLSI protocol based broth microdilution method relative to control; assay type: functional
Escherichia coli [9] = assay: Antimicrobial activity against Escherichia coli ATCC 25922 assessed as reduction in bacterial growth incubated for 18 hrs in presence of 10% serum by CLSI protocol based broth microdilution method (reference value: 8 uM); assay type: functional
Escherichia coli [10] = assay: Antimicrobial activity against Escherichia coli ATCC 25922 assessed as reduction of bacterial growth incubated for 18 hrs by CLSI protocol based broth microdilution method; assay type: functional
Escherichia coli [11] = assay: Synergistic antibacterial activity against rifampicin-resistant Escherichia coli ATCC 25922 assessed as fractional inhibitory concentration index incubated for 18 hrs in presence of rifampicin by checker board assay; assay type: functional
Cell membrane [12] = assay: Induction of inner membrane permeabilization in Escherichia coli ML-35 ATCC 43587 at 1 to 4 times MIC by ONPG based assay
Escherichia coli [13] = assay: Antimicrobial activity against Escherichia coli ATCC 25922 assessed as reduction in bacterial growth incubated for 18 hrs in presence of 1 mM MgCl2 by CLSI protocol based broth microdilution method (reference value: 8 uM); assay type: functional
Staphylococcus aureus [14] = assay: Antimicrobial activity against Staphylococcus aureus ATCC 25923 assessed as reduction in bacterial growth incubated for 18 hrs in presence of 150 mM NaCl by CLSI protocol based broth microdilution method (reference value: 8 uM); assay type: functional
Cell membrane [15] = assay: Induction of outer membrane permeabilization in Escherichia coli ATCC 25922 by NPN fluorescent dye based assay; assay type: subcellular; settings: DDE = dose-dependent effect
Staphylococcus aureus [16] = assay: Antimicrobial activity against Staphylococcus aureus ATCC 25923 assessed as reduction in bacterial growth incubated for 18 hrs in presence of 4 uM FeCl3 by CLSI protocol based broth microdilution method (reference value: 8 uM); assay type: functional
Staphylococcus aureus [17] = assay: Antimicrobial activity against Staphylococcus aureus ATCC 25923 assessed as reduction of bacterial growth incubated for 18 hrs by CLSI protocol based broth microdilution method; assay type: functional
Escherichia coli [18] = assay: Synergistic antibacterial activity against Escherichia coli ATCC 25922 assessed as fractional inhibitory concentration index incubated for 18 hrs in presence of kanamycin by checker board assay; assay type: functional
[19] = system: Staphylococcus epidermidis; assay: Antimicrobial activity against Staphylococcus epidermidis ATCC 12228 assessed as reduction of bacterial growth incubated for 18 hrs by CLSI protocol based broth microdilution method; assay type: functional
Escherichia coli [20] = assay: Antimicrobial activity against Escherichia coli ATCC 25922 assessed as reduction in bacterial growth incubated for 18 hrs in presence of 150 mM NaCl by CLSI protocol based broth microdilution method (reference value: 8 uM); assay type: functional
Escherichia coli [21] = assay: Antimicrobial activity against Escherichia coli ATCC 25922 assessed as reduction in bacterial growth incubated for 18 hrs in presence of 4.5 mM KCl by CLSI protocol based broth microdilution method (reference value: 8 uM); assay type: functional
Staphylococcus aureus [22] = assay: Antimicrobial activity against Staphylococcus aureus ATCC 25923 assessed as fold change in MICincubated for 18 hrs in presence of 150 mM NaCl by CLSI protocol based broth microdilution method relative to control; assay type: functional
Escherichia coli [23] = assay: Antimicrobial activity against Escherichia coli ATCC 25922 assessed as reduction in bacterial growth incubated for 18 hrs in presence of 4 uM FeCl3 by CLSI protocol based broth microdilution method (reference value: 4 uM); assay type: functional
Staphylococcus aureus [24] = assay: Antimicrobial activity against Staphylococcus aureus ATCC 25923 assessed as reduction in bacterial growth incubated for 18 hrs in presence of 1 mM MgCl2 by CLSI protocol based broth microdilution method (reference value: 4 uM); assay type: functional
Escherichia coli [25] = assay: Antimicrobial activity against Escherichia coli ATCC 25922 assessed as reduction in bacterial growth incubated for 18 hrs in presence of 4.5 mM KCl by CLSI protocol based broth microdilution method (reference value: 4 uM); assay type: functional
Staphylococcus aureus [26] = assay: Antimicrobial activity against Staphylococcus aureus ATCC 25923 assessed as reduction in bacterial growth incubated for 18 hrs in presence of 10% serum by CLSI protocol based broth microdilution method (reference value: 4 uM); assay type: functional
Staphylococcus aureus [27] = assay: Synergistic antibacterial activity against rifampicin-resistant Staphylococcus aureus ATCC 25923 assessed as fractional inhibitory concentration index incubated for 18 hrs in presence of rifampicin by checker board assay; assay type: functional
Escherichia coli [28] = assay: Antimicrobial activity against Escherichia coli ATCC 25922 assessed as reduction in bacterial growth incubated for 18 hrs in presence of 150 mM NaCl by CLSI protocol based broth microdilution method (reference value: 4 uM); assay type: functional
Staphylococcus aureus [29] = assay: Antimicrobial activity against Staphylococcus aureus ATCC 25923 assessed as reduction in bacterial growth incubated for 18 hrs in presence of 150 mM NaCl by CLSI protocol based broth microdilution method (reference value: 4 uM); assay type: functional
Staphylococcus aureus [30] = assay: Synergistic antibacterial activity against polymyxin B-resistant Staphylococcus aureus ATCC 25923 assessed as fractional inhibitory concentration index incubated for 18 hrs in presence of polymyxin B by checker board assay; assay type: functional
Staphylococcus aureus [31] = assay: Synergistic antibacterial activity against meropenem-resistant Staphylococcus aureus ATCC 25923 assessed as fractional inhibitory concentration index incubated for 18 hrs in presence of meropenem by checker board assay; assay type: functional
Escherichia coli [32] = assay: Antimicrobial activity against Escherichia coli ATCC 25922 assessed as reduction in bacterial growth incubated for 18 hrs in presence of 1 mM MgCl2 by CLSI protocol based broth microdilution method (reference value: 4 uM); assay type: functional

Row | Substance | fractional inhibitory concentration index (FICI) (Escherichia coli [2]) | fold change (FC) (Staphylococcus aureus [3]) | MIC (Escherichia coli [4]) | fold change (FC) (Escherichia coli [6]) | MIC (Enterococcus faecalis) | fold change (FC) (Staphylococcus aureus [7]) | fold change (FC) (Escherichia coli [8]) | MIC (Escherichia coli [10]) | Activity (Cell membrane [12]) | Activity (Cell membrane [15]) | MIC (Staphylococcus aureus [17]) | MIC [19] | fold change (FC) (Staphylococcus aureus [22]) | other results
1 | H-KWKWKRRRFKWKWK-NH2 | 0.375 | 1 | 4 µM | 1 | 16 µM | 1 | 1 | 8 µM | Active | Dde | 8 µM | 4 µM | 2 | MIC (Staphylococcus aureus [1]): 16 µM; MIC (Staphylococcus aureus [5]): 8 µM; MIC (Escherichia coli [9]): 8 µM; fractional inhibitory concentration index (FICI) (Escherichia coli [11]): 0.5625; MIC (Escherichia coli [13]): 8 µM; MIC (Staphylococcus aureus [14]): 16 µM; MIC (Staphylococcus aureus [16]): 8 µM; fractional inhibitory concentration index (FICI) (Escherichia coli [18]): 0.3125; MIC (Escherichia coli [20]): 8 µM; MIC (Escherichia coli [21]): 8 µM
2 | H-RIRIRRRRFRIRIR-NH2 | 0.5 | 1 | 4 µM | 2 | 8 µM | 2 | 2 | 4 µM | Active | Dde | 4 µM | 4 µM | 2 | MIC (Escherichia coli [23]): 8 µM; MIC (Staphylococcus aureus [24]): 8 µM; MIC (Escherichia coli [25]): 8 µM; MIC (Staphylococcus aureus [26]): 8 µM; fractional inhibitory concentration index (FICI) (Staphylococcus aureus [27]): 0.375; MIC (Escherichia coli [28]): 16 µM; MIC (Staphylococcus aureus [29]): 8 µM; fractional inhibitory concentration index (FICI) (Staphylococcus aureus [30]): 0.3125; fractional inhibitory concentration index (FICI) (Staphylococcus aureus [31]): 0.375; MIC (Escherichia coli [32]): 4 µM
